Reference: patent US10022354B2, “Pyrrolidine amide compounds as histone demethylase inhibitors” (GENENTECH, INC., priority 2014, dated 2018)

What was measured:
[1] = system: H3K4Me3 mark level in PC9 cells; assay: KDM5 Cell Assay (H3K4Me3 mark level, PC9 HTRF); format: cell-based; conditions: Homo sapiens, PC-9, 120 hours at 37° C.
Protocol: PC9 cells were seeded in a 384 well plate (2000 cells/well) with a test compound and incubated for 120 hours at 37° C. H3K4Me3 mark level was assessed using HTRF reagents from CisBio. Briefly, media was removed and cells were lysed in 20 μL of Epigeneous Cell Histone lysis buffer C for 45 min at 26° C., shaking. 10 μL of 4 μg/mL acceptor antibody (H3K4me3-d2) and 10 μL of 1.2 μg/mL donor antibody (Total H3-K) in Cell Histone detection buffer were added and the mixture was incubated at 26° C. for 1 hour. Assay plate was read subsequently on Envision (Perkin Elmer). Each compound was run in duplicate. Data were normalized to DMSO treated wells as the low response and EC50's were calculate using a four-parameter fit.

[2] = target: full length KDM5A enzyme (Homo sapiens (Human), UniProt P29375); assay: KDM5 Enzyme Assay (KDM5A HTRF); format: biochemical; conditions: 2 nM full length KDM5A, 100 nM H3K4Me3 peptide, 1 uM 2-OG, 30 min room temperature
Chain of full length KDM5A enzyme (P29375 whole entry): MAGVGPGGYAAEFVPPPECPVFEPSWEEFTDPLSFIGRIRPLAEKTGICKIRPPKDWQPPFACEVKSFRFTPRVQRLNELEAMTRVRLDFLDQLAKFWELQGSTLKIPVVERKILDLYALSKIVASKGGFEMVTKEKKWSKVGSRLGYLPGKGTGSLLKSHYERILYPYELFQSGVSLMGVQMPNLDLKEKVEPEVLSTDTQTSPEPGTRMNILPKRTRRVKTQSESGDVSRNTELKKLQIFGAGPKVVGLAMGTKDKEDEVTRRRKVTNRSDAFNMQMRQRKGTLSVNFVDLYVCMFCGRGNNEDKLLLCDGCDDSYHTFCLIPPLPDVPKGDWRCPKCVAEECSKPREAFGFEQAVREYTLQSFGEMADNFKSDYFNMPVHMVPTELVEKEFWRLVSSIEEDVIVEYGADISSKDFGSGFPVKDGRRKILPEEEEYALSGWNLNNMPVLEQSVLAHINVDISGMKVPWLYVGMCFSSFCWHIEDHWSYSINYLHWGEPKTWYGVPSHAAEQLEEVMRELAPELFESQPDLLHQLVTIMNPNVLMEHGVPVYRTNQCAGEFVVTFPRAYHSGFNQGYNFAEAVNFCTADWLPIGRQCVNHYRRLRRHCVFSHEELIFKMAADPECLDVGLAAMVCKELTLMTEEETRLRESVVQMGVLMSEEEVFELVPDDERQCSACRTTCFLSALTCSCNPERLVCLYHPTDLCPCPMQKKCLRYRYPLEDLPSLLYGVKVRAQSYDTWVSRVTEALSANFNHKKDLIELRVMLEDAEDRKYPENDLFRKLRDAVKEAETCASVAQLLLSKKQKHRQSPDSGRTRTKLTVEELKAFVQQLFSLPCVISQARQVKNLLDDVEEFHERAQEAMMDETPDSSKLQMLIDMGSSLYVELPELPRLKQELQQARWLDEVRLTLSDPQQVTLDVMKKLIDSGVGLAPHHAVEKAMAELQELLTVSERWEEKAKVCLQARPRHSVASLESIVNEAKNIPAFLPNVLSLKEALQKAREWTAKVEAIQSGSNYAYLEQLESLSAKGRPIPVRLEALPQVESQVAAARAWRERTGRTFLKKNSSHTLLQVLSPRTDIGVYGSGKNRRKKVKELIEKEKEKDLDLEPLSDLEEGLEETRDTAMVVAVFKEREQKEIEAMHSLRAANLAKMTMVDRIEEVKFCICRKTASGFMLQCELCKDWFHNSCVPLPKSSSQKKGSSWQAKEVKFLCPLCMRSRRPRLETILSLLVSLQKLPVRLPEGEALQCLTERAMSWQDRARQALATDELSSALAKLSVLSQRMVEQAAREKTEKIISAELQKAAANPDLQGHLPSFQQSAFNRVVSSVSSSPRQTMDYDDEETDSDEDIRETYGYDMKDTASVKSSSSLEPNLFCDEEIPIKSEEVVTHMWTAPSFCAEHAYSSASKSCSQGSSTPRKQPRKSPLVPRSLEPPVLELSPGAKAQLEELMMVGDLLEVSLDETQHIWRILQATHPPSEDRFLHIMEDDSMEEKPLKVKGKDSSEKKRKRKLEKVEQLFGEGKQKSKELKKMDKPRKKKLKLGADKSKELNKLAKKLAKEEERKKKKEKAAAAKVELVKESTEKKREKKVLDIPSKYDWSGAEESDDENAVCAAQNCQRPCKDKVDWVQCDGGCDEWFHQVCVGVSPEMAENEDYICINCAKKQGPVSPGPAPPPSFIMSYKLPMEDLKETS
Procedure, shortened: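 KDM5A demethylase activity was assessed by HTRF using in-house expressed and purified full length human KDM5A at 2 nM with 100 nM biotinylated H3K4Me3 peptide and 1 uM 2-OG. The 10 uL reaction also held 100 uM Fe^2+, 500 uM ascorbate, 50 mM HEPES pH 7.0, 0.01% Triton-X 100, 2 mM DTT and 0.25% DMSO. Detection used Eu-labeled H3K4me1-2 antibody and streptavidin-XL665, read on an Envision reader.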

Work on `CC(C)c1cc(C(=O)N2CCC(c3cc(-c4cnn(C)c4)ccn3)C2)[nH]n1` (stereo not drawn) [Example 12, (3-Isopropyl-1H-pyrazol-5-yl)(3-(4-(1-methyl-1H-pyrazol-4-yl)pyridin-2-yl)pyrrolidin-1-yl) Methanone] yielded an EC50 [1] of 23000 pM and an IC50 [2] of 570 pM.
`CC(C)n1cnc(C(=O)N2CCC(NC(=O)C3CC3)C2)c1` (stereo not drawn) [Example 19, N-(1-(1-isopropyl-1H-imidazole-4-carbonyl)pyrrolidin-3-yl)cyclopropanecarboxamide] showed an EC50 [1] of 26000 pM and an IC50 [2] of 210 pM.
Compound `CC(CCCc1ccccc1)c1cc(C(=O)N2CCC(NC(=O)C3CC3)C2)n[nH]1` (stereo not drawn) [Example 22, N-(1-(5-(5-phenylpentan-2-yl)-1H-pyrazole-3-carbonyl)pyrrolidin-3-yl) cyclopropanecarboxamide] has an EC50 [1] of 11000 pM and an IC50 [2] of 120 pM.
In the case of `CC(C)c1cc(C(=O)N2CC[C@@H](NC(=O)C3CC3)C2)[nH]n1` [Example 29, (R)—N-(1-(3-isopropyl-1H-pyrazole-5-carbonyl)pyrrolidin-3-yl)cyclopropane Carboxamide], the EC50 [1] is reported as 930 pM and the IC50 [2] is reported as 49 pM.
`CC(C)c1cc(C(=O)N2CCC(N3Cc4ccccc4C3=O)C2)[nH]n1` (stereo not drawn) [Example 30, 2-(1-(3-Isopropyl-1H-pyrazole-5-carbonyl)pyrrolidin-3-yl)isoindolin-1-one] gave an EC50 [1] of 15000 pM and an IC50 [2] of 140 pM.
`CC(C)c1cc(C(=O)N2CCC(NC(=O)NC3CC3)C2)[nH]n1` (stereo not drawn) [Example 33, 1-Cyclopropyl-3-(1-(3-isopropyl-1H-pyrazole-5-carbonyl)pyrrolidin-3-yl)urea] gave an EC50 [1] of 3300 pM and an IC50 [2] of 87 pM.
`CNC(=O)NC1CCN(C(=O)c2cc(C(C)C)n[nH]2)C1` (stereo not drawn) [Example 34, 1-(1-(3-Isopropyl-1H-pyrazole-5-carbonyl)pyrrolidin-3-yl)-3-methylurea] was tested, and the EC50 [1] was 2300 pM and the IC50 [2] was 58 pM.
In the case of `Cc1cccn(C2CCN(C(=O)c3cc(C(C)C)n[nH]3)C2)c1=O` (stereo not drawn) [Example 40, 1-(1-(3-Isopropyl-1H-pyrazole-5-carbonyl)pyrrolidin-3-yl)-3-methylpyridin-2(1H)-one], the EC50 [1] is reported as 3700 pM and the IC50 [2] is reported as 58 pM.
With `CC(C)c1cc(C(=O)N2CC[C@@H](n3cccc(C4CC4)c3=O)C2)[nH]n1` [Example 41, (R)-3-cyclopropyl-1-(1-(3-isopropyl-1H-pyrazole-5-carbonyl)pyrrolidin-3-yl)pyridin-2(1H)-one] the EC50 [1] was 6800 pM and the IC50 [2] was 51 pM.
With `CC(C)c1cc(C(=O)N2CCC(n3cc(Br)cn3)C2)[nH]n1` (stereo not drawn) [Example 59] the EC50 [1] was 30000 pM and the IC50 [2] was 740 pM.
`Cc1cc(-c2cnn(Cc3ccccc3)c2)cc(C2CCN(C(=O)c3cc(C(C)C)n[nH]3)C2)n1` (stereo not drawn) [Example 69] was tested, and the EC50 [1] was 15000 pM and the IC50 [2] was 110 pM.
`CC(C)c1cc(C(=O)N2CC[C@H](NC(=O)c3ccccc3)C2)[nH]n1` [Example 117] gave an EC50 [1] of 8200 pM and an IC50 [2] of 77 pM.
Compound `CC(C)c1cc(C(=O)N2CCC(NC(=O)C3(C)CC3)C2)[nH]n1` (stereo not drawn) [Example 128] has an EC50 [1] of 4400 pM and an IC50 [2] of 59 pM.
`CC(C)c1cc(C(=O)N2CCC(NC(=O)C3(C)CCC3)C2)[nH]n1` (stereo not drawn) [Example 134] showed an EC50 [1] of 6400 pM and an IC50 [2] of 71 pM.
Compound `CC(C)c1cc(C(=O)N2CCC(NC(=O)c3ccc4cc[nH]c4n3)C2)[nH]n1` (stereo not drawn) [Example 135] has an EC50 [1] of 4900 pM and an IC50 [2] of 76 pM.
`CC(C)c1cc(C(=O)N2CCC(NC(=O)c3ccccc3OCc3ccccc3)C2)[nH]n1` (stereo not drawn) [Example 136] showed an EC50 [1] of 2500 pM and an IC50 [2] of 54 pM.
Work on `CCC1(C(=O)NC2CCN(C(=O)c3cc(C(C)C)n[nH]3)C2)CC1` (stereo not drawn) [Example 141] yielded an EC50 [1] of 6500 pM and an IC50 [2] of 140 pM.
`CC(C)c1cc(C(=O)N2CCC(NC(=O)C3CC3)C2)[nH]n1` (stereo not drawn) [Example 151] was tested, and the EC50 [1] was 1700 pM.
`CC(C)c1cc(C(=O)N2CCC(NC(=O)C3(O)CC3)C2)[nH]n1` (stereo not drawn) [Example 171] showed an EC50 [1] of 8600 pM and an IC50 [2] of 200 pM.
For `CCCOc1ccccc1C(=O)NC1CCN(C(=O)c2cc(C(C)C)n[nH]2)C1` (stereo not drawn) [Example 180], the EC50 [1] was 3200 pM and the IC50 [2] was 65 pM.
`CC(C)c1cc(C(=O)N2CC[C@@H](NC(=O)c3ccccc3)C2)[nH]n1` [Example 183] gave an EC50 [1] of 4800 pM.
`CC(C)c1cc(C(=O)N2CCC(NC(=O)c3ncccc3F)C2)n[nH]1` (stereo not drawn) [Example 200] was tested, and the IC50 [2] was 250 pM.
Work on `CC(C)Oc1ccccc1C(=O)NC1CCN(C(=O)c2cc(C(C)C)n[nH]2)C1` (stereo not drawn) [Example 201] yielded an IC50 [2] of 92 pM.
For `CC(C)c1cc(C(=O)N2CCC(N3CCc4ccccc4C3=O)C2)[nH]n1` (stereo not drawn) [Example 202], the IC50 [2] was 1500 pM.
Compound `O=C(NC1CCN(C(=O)c2c[nH]cn2)C1)C1CC1` (stereo not drawn) [Example 203] has an IC50 [2] of 6200 pM.
`Cn1cnc(C(=O)N2CCC(NC(=O)C3CC3)C2)c1` (stereo not drawn) [Example 204] showed an IC50 [2] of 2200 pM.
`O=C(NC1CCN(C(=O)c2cc(Br)n[nH]2)C1)C1CC1` (stereo not drawn) [Example 205] showed an IC50 [2] of 14000 pM.
For `CC(C)Cc1cc(C(=O)N2CCC(NC(=O)C3CC3)C2)[nH]n1` (stereo not drawn) [Example 206], the IC50 [2] was 300 pM.
Work on `O=C(NC1CCN(C(=O)c2cc(C3CCCCC3)n[nH]2)C1)C1CC1` (stereo not drawn) [Example 207] yielded an IC50 [2] of 420 pM.
With `O=C(NC1CCN(C(=O)c2cc(C3CC3)n[nH]2)C1)C1CC1` (stereo not drawn) [Example 208] the IC50 [2] was 190 pM.
With `Nc1cc(C(=O)N2CCC(NC(=O)C3CC3)C2)[nH]n1` (stereo not drawn) [Example 209] the IC50 [2] was 17000 pM.
For `O=C(NC1CCN(C(=O)c2cc(C3CCC3)n[nH]2)C1)C1CC1` (stereo not drawn) [Example 210], the EC50 [1] was 6700 pM and the IC50 [2] was 160 pM.
`COC(C)c1cc(C(=O)N2CCC(NC(=O)C3CC3)C2)[nH]n1` (stereo not drawn) [Example 211] was tested, and the IC50 [2] was 2600 pM.
Work on `CC(CCc1ccccc1)c1cc(C(=O)N2CCC(NC(=O)C3CC3)C2)[nH]n1` (stereo not drawn) [Example 212] yielded an EC50 [1] of 11000 pM and an IC50 [2] of 120 pM.
Work on `CCCCc1cc(C(=O)N2CCC(NC(=O)C3CC3)C2)[nH]n1` (stereo not drawn) [Example 213] yielded an IC50 [2] of 810 pM.
Compound `O=C(NC1CCN(C(=O)c2cc(CCc3ccccc3)n[nH]2)C1)C1CC1` (stereo not drawn) [Example 214] has an IC50 [2] of 2700 pM.
Work on `O=C(NC1CCN(C(=O)c2cc(C3CCCC3)n[nH]2)C1)C1CC1` (stereo not drawn) [Example 215] yielded an IC50 [2] of 230 pM.
With `CC(=O)NC(C)c1cc(C(=O)N2CCC(NC(=O)C3CC3)C2)n[nH]1` (stereo not drawn) [Example 216] the IC50 [2] was 6600 pM.
`CC(NC(=O)CO)c1cc(C(=O)N2CCC(NC(=O)C3CC3)C2)n[nH]1` (stereo not drawn) [Example 217] was tested, and the IC50 [2] was 3200 pM.
Compound `CC(C)c1cc(C(=O)N2C[C@H](NC(=O)C3CC3)[C@@H](F)C2)[nH]n1` [Example 218] has an EC50 [1] of 1700 pM and an IC50 [2] of 50 pM.
With `CC(C)c1cc(C(=O)N2C[C@H](NC(=O)C3CC3)[C@@H](O)C2)[nH]n1` [Example 219] the EC50 [1] was 1800 pM and the IC50 [2] was 46 pM.
`CC(C)c1cc(C(=O)N2C[C@H](NC(=O)C3CC3)C3(CC3)C2)[nH]n1` [Example 220] gave an EC50 [1] of 2500 pM and an IC50 [2] of 160 pM.
`CC(C)c1cc(C(=O)N2CC[C@@H](NC(=O)C3(F)CC3)C2)[nH]n1` [Example 221] showed an EC50 [1] of 2100 pM and an IC50 [2] of 51 pM.
`CC(C)c1cc(C(=O)N2CC[C@@H](NC(=O)[C@H]3C[C@H]3F)C2)[nH]n1` [Example 222] gave an EC50 [1] of 1300 pM and an IC50 [2] of 25 pM.
`CC(C)c1cc(C(=O)N2CC[C@@H](NC(=O)C3CCO3)C2)[nH]n1` (stereo partly drawn) [Example 223] was tested, and the IC50 [2] was 360 pM.
`CC(C)c1cc(C(=O)N2CC[C@@H](NC(=O)C3(C)CC3)C2)[nH]n1` [Example 224] was tested, and the EC50 [1] was 1400 pM and the IC50 [2] was 74 pM.
`CC(C)c1cc(C(=O)N2CC[C@H](NC(=O)C3(C)CC3)C2)[nH]n1` [Example 225] showed an EC50 [1] of 14000 pM and an IC50 [2] of 110 pM.
In the case of `CC(C)c1cc(C(=O)N2CC[C@@H](NC(=O)C3(C#N)CC3)C2)[nH]n1` [Example 226], the IC50 [2] is reported as 230 pM.
For `CC(C)c1cc(C(=O)N2CC[C@@H](NC(=O)CC#N)C2)[nH]n1` [Example 227], the IC50 [2] was 240 pM.
Compound `CC(C)c1cc(C(=O)N2CC[C@H](NC(=O)[C@@H]3C[C@@H]3F)C2)[nH]n1` [Example 229] has an IC50 [2] of 110 pM.
With `CC(C)c1cc(C(=O)N2CC[C@H](NC(=O)[C@H]3C[C@H]3F)C2)[nH]n1` [Example 230] the IC50 [2] was 140 pM.
`CC(C)c1cc(C(=O)N2CC[C@@H](NC(=O)[C@H]3C[C@@H]3F)C2)[nH]n1` [Example 231] was tested, and the IC50 [2] was 330 pM.
`Cc1cc(C)n(C2CCN(C(=O)c3cc(C(C)C)n[nH]3)C2)n1` (stereo not drawn) [Example 233] showed an IC50 [2] of 12000 pM.
Compound `CC(C)c1cc(C(=O)N2CCC(n3cc4c(n3)CCC4)C2)[nH]n1` (stereo not drawn) [Example 235] has an IC50 [2] of 340 pM.
`Cc1nn(C2CCN(C(=O)c3cc(C(C)C)n[nH]3)C2)cc1-c1ccccc1` (stereo not drawn) [Example 236] was tested, and the IC50 [2] was 320 pM.
Work on `Cc1nn(C2CCN(C(=O)c3cc(C(C)C)n[nH]3)C2)cc1Br` (stereo not drawn) [Example 237] yielded an IC50 [2] of 360 pM.
Compound `CC(C)c1cc(C(=O)N2CCC(n3cc(Br)c(C(F)F)n3)C2)[nH]n1` (stereo not drawn) [Example 239] has an IC50 [2] of 350 pM.
`CC(C)c1cc(C(=O)N2CCC(n3cc(Br)c(C#N)n3)C2)[nH]n1` (stereo not drawn) [Example 240] showed an IC50 [2] of 2100 pM.
Work on `CC(C)c1cc(C(=O)N2CC[C@@H](n3cc4ccccc4n3)C2)[nH]n1` [Example 242] yielded an IC50 [2] of 350 pM.
Work on `CC(C)c1cc(C(=O)N2CC[C@@H](n3ncc4ccccc43)C2)[nH]n1` [Example 243] yielded an IC50 [2] of 920 pM.
Work on `CC(C)c1cc(C(=O)N2CCC(n3ncc4c(F)cc(Br)cc43)C2)[nH]n1` (stereo not drawn) [Example 245] yielded an IC50 [2] of 910 pM.
In the case of `CC(C)c1cc(C(=O)N2CC[C@@H](n3cc4c(F)cccc4n3)C2)[nH]n1` [Example 247], the IC50 [2] is reported as 430 pM.
